Measured values: US10830762B2, “Compositions and methods for inducing conformational changes in cereblon and other E3 ubiquitin ligases” (Celgene Corporation, priority 2015, dated 2020)

Experiments:
CRBN = CRBN (Homo sapiens, UniProt Q96SW2); assay: Thalidomide analog affinity bead competition assay in U266 cell extracts; assay type: binding; design: endogenous in cells; host or cells: U266 multiple myeloma cells (extract); conditions: competition with thalidomide analog affinity beads
Experimental: (§1) Immunoblot analysis of extracts prepared from U266 multiple myeloma cells and pre-incubated with vehicle DMSO (D), Pomalidomide (Pom) or Compound C at the indicated concentrations, and bound to thalidomide analog affinity beads, washed and eluted with SDS buffer as previously described (Ito et al, 2010; Lopez-Girona et al, 2012). Samples were subjected to SDS-PAGE and immunoblot analysis using anti-CRBN 65-76 (1:10,000 dilution; Red signal) and anti-DDB1 (Cell Signaling) (1:2,000 dilution; Green signal). […] Cell proliferation assay of DF15 (sensitive), DF15R (resistant; CRBNnull) cells treated with a dose response of Compound C. Assays were done in triplicate and error bars represent s.d. Data for each cell line was normalized to treatment with vehicle (DMSO). […] Cell proliferation assay of DF15 (sensitive), DF15R (resistant; CRBNnull), DF15R-hCRBNWT (human CRBN), DF15R-RFP cells treated with a dose response of Compound C. […] Assays were done in triplicate and error bars represent s.d. Data for each cell line was normalized to treatment with vehicle (DMSO).
Coupling of thalidomide analog to FG-magnetic nanoparticle beads (Tamagawa Seiko Co. Tokyo, Japan) was carried out as described (Ito et al., Science, 2010. 327(5971):1345-50), and cell extract binding assays to these beads were performed with minor modifications. […]

IKZF1 = target: T1, IKZF1 (Homo sapiens, UniProt Q13422+Q96SW2); assay: IKZF1 degradation in HEK293T cells co-transfected with wild-type or mutant CRBN; assay type: cell-based
T1 construct: expressed in transfected cells; host or cells: HEK293T cells

GSPT1 [1] = target: T2, GSPT1 (Homo sapiens, UniProt P15170+Q96SW2, V100A); assay: GSPT1 degradation in HEK293T cells transfected with wild-type or mutant CRBN; assay type: cell-based; conditions: human WT CRBN
T2 construct: endogenous in cells; host or cells: HEK293T cells
Description: (§2) A key feature of immunomodulatory drug biology is the striking resistance observed in rodent species. This feature was historically a confounding factor in establishing the efficacy and safety risks associated with thalidomide. It was shown that, in contrast to human cereblon, murine cereblon is unable to rescue immunomodulatory drug sensitivity. Chamberlain et al., Nature structural & mole. biol. 2014, 21:803-809. It was proposed that the molecular basis for this would lie in two variable residues on the cereblon surface proximal to the tri-Tryp pocket, E377V and V388I. […] Kronke et al., Nature 2015, 523:183-188. Despite the potent effect seen on human cells, murine cells are resistant to the antiproliferative and pro-apoptotic effects of Compound C (data not shown). […] The dependence of GSPT1 degradation upon E377 can be rationalized by the crystal structure: the side chain of E377 mediates hydrogen bond interactions with the urea moiety of Compound C.

GSPT1 [2] = target: T3, GSPT1 (Homo sapiens, UniProt P15170+Q96SW2); assay: as above; assay type: cell-based; conditions: murine CRBN V377E
T3 construct: endogenous in cells; host or cells: HEK293T cells
Description: as §2

GSPT1 [3] = target: T4, GSPT1 (Homo sapiens, UniProt P15170+Q96SW2, E377V/V100A); assay: as above; assay type: cell-based; conditions: human CRBN E377V
T4 construct: endogenous in cells; host or cells: HEK293T cells
Description: as §2

GSPT1 [4] = target: T5, GSPT1 (Homo sapiens, UniProt P15170+Q96SW2, V100A/V388I); assay: as above; assay type: cell-based; conditions: human CRBN V388I
T5 construct: endogenous in cells; host or cells: HEK293T cells
Description: as §2

yeast homologue SUP35 = yeast homologue SUP35 (Saccharomyces cerevisiae, UniProt P05453); assay: Compound-induced degradation of yeast homologue SUP35; assay type: cell-based; conditions: yeast SUP35, in contrast to human GSPT1
[5] = system: H929 multiple myeloma cell line; assay: Apoptosis in multiple myeloma cell line H929; assay type: cell-based; conditions: 0.01 nM to 1000 nM; assessed 24 hrs later
Experimental: The multiple myeloma cell line, H929, was cultured and treated with Compound C or other CMA analogs at various concentrations from 0.01 nM to 1000 nM. Apoptosis was assessed at 24 hrs. later.

murine cells = assay: Antiproliferative and pro-apoptotic effects on murine cells; assay type: cell-based; conditions: murine cells (data not shown)
Description: as §2

human GSPT1 [6] = target: T6, human GSPT1 (Homo sapiens, UniProt P15170); assay: Compound-induced GSPT1 degradation by Western blot in 293T HEK cells; assay type: cell-based; conditions: full-length and truncated (lacking N-terminal 138 residues) GSPT1
T6 construct: expressed in transfected cells; host or cells: 293T HEK cells
Description: (§3) FIG. 28A illustrates a full-length human GSPT1 and a truncated mutant form, which lacks the N-terminal 138 amino acid residues. […] Thus, the truncated mutant human GSPT1 maintained the functionality of the full-length protein and can be used in studies below.
(§4) To determine the critical region in the human GSPT1 that contributes to the Compound C-induced degradation, a plethora of chimeric constructs containing various domains of human GSPT1 and yeast SUP35 were generated (FIG. 30A). These recombinant proteins were tested for Compound C-induced degradation by Western blot (FIGS. 30B-30D). As the results shown, a 32-amino acid fragment in the C-terminus of human GSPT1 (residues 562-593) is critical for Compound C-induced degradation.
(§5) To further map the essential amino acid residues in this 32-amino acid fragment of human GSPT1, various point mutations within the fragment were generated and tested for Compound C-induced degradation of GSPT1 and Compound C-induced interaction between CRBN and GSPT1. […] Among these homologues, only the yeast SUP35 is resistant to Compound C. […] Other mutations, […].

human GSPT1 [7] = target: T7, human GSPT1 (Homo sapiens, UniProt P15170, G437N); assay: as above; assay type: cell-based; conditions: GSPT1 G575N mutation
T7 construct: expressed in transfected cells; host or cells: 293T HEK cells
Description: as §3, §4, §5

[8] = system: DF15 / DF15R myeloma cells; assay: Cell proliferation assay of DF15, DF15R and DF15R re-expressing CRBN treated with Compound C; assay type: cell-based
Experimental: as §1

[9] = system: MDA-MB-231 breast cancer cells; assay: Growth inhibition and pro-apoptotic activity in breast cancer cells treated with CRBN siRNA; assay type: cell-based; conditions: CRBN siRNA vs negative control
Experimental: Breast cancer cells (MDA-MB-231) were treated with CRBN siRNA or a negative control. Compound C was added at a concentration between 0 to 100 μM, and CRBN levels were assessed at 48 hours post treatment.
Compound C-mediated growth inhibition and pro-apoptotic activity were also assessed.

CRBN-GSPT1 = assay: Compound-induced interaction (in vitro binding) of CRBN with GSPT1; design: species or system human
Description: as §3, §5

[10] = system: TMD8 (ABC) or Karpas 422 (GCB) cells; assay: 3H-thymidine incorporation proliferation assay with lenalidomide co-treatment; assay type: cell-based; conditions: co-treatment with 10 μM lenalidomide; 3H-thymidine incorporation
[11] = system: human GSPT1 (G575N mutation); assay: Growth inhibition and activation of ATF4 and apoptosis pathways with GSPT1 G575N mutation; assay type: cell-based
[12] = system: panel of tumor cell lines (B-lymphoma, breast, CNS, colon, kidney, leukemia, lung, melanoma, multiple myeloma, ovary, prostate); assay: Potency across a panel of tumor cell lines; assay type: cell-based
Experimental: The potency of Compound C was assessed across a panel of tumor cell lines, including B-lymphoma, breast, CNS, colon, kidney, leukemia, lung, melanoma, multiple myeloma, ovary and prostate.

Cc1ccc(NC(=O)NCc2ccc3c(c2)CN(C2CCC(=O)NC2=O)C3=O)cc1Cl (stereo not drawn) [Compound C, 1-(3-chloro-4-methylphenyl)-3-((2-(2,6-dioxopiperidin-3-yl)-1-oxoisoindolin-5-yl)methyl)urea]
binding to CRBN protein in MM cell extracts (CRBN): binds CRBN protein | IKZF1 degradation (IKZF1; human CRBN V388I): blocks the degradation of IKZF1 | IKZF1 degradation (IKZF1; human WT CRBN): degradation of both IKZF1 and GSPT1 | GSPT1 degradation (GSPT1 [1]): degradation of both IKZF1 and GSPT1 | GSPT1 degradation (GSPT1 [2]): restores GSPT1 degradation | GSPT1 degradation (GSPT1 [3]): blocks the degradation of GSPT1 | GSPT1 degradation (GSPT1 [4]): maintained | SUP35 degradation (yeast homologue SUP35): did not exhibit Compound C-induced degradation | early apoptosis [5]: induced early apoptosis | antiproliferative and pro-apoptotic effects (murine cells): resistant | GSPT1 degradation (human GSPT1 [6]): induced degradation of the full-length GSPT1 and the truncated form | GSPT1 degradation (human GSPT1 [7]): blocked Compound C-induced degradation | CRBN dependence of anti-proliferative activity ([8]; DF15 (sensitive) vs DF15R (CRBN null)): CRBN is required for the anti-proliferative activity | anti-proliferative activity after re-expression of human CRBN ([8]; DF15R-hCRBNWT): rescues Compound C anti-proliferative activity | CRBN dependence of growth inhibition and pro-apoptotic activity [9]: CRBN is required for both inhibition and pro-apoptotic activity | interaction between CRBN and GSPT1 (CRBN-GSPT1; GSPT1 G575N mutation): blocked Compound C-induced interaction between CRBN and GSPT1 | interaction of CRBN with GSPT1 (CRBN-GSPT1; full-length and truncated GSPT1): induced interaction of CRBN with the full-length GSPT1 as well as the truncated GSPT1 | anti-proliferative effects on co-treatment with lenalidomide [10]: blocks anti-proliferative effects | growth inhibition and downstream activation of ATF4 and apoptosis pathways [11]: blocked Compound C-induced growth inhibition and Compound C-induced downstream activation of ATF4 and apoptosis pathways | Therapeutic Index ([12]; across the cancer cell panel): overall low Therapeutic Index | potency / activity in tumor cell lines ([12]; panel of tumor cell lines): potent across a panel of tumor lines
